Reference: ChEMBL document CHEMBL3045592, “Studies of O,O-dimethyl α-(2,4-dichlorophenoxyacetoxy)ethylphosphonate (HW02) as a new herbicide. 1. Synthesis and herbicidal activity of HW02 and analogues as novel inhibitors of pyruvate dehydrogenase complex” (J Agric Food Chem, 2011)

How the values were obtained:
Chenopodium album [1] = test: Post-emergence herbicidal activity against Chenopodium album assessed as growth inhibition at 150 ai g/ha after 20 days by green house test; assay type: functional
Amaranthus spinosus [2] = test: Post-emergence herbicidal activity against Amaranthus spinosus assessed as growth inhibition at 150 ai g/ha after 20 days by green house test; assay type: functional
Abutilon theophrasti [3] = test: Post-emergence herbicidal activity against Abutilon theophrasti (velvetleaf) assessed as growth inhibition at 450 ai g/ha after 20 days by green house test; assay type: functional
[4] = test system: Brassica rapa subsp. oleifera; test: Post-emergence herbicidal activity against Brassica rapa subsp. oleifera Si Yue Man assessed as growth inhibition at 1500 ai g/ha after 20 days by green house test; assay type: functional
Chenopodium album [5] = test: Pre-emergence herbicidal activity against Chenopodium album assessed as growth inhibition at 450 ai g/ha after 20 days by green house test; assay type: functional
Abutilon theophrasti [6] = test: Pre-emergence herbicidal activity against Abutilon theophrasti (velvetleaf) assessed as growth inhibition at 450 ai g/ha after 20 days by green house test; assay type: functional
Amaranthus spinosus [7] = test: Pre-emergence herbicidal activity against Amaranthus spinosus assessed as growth inhibition at 75 ai g/ha after 20 days by green house test; assay type: functional
Chenopodium album [8] = test: Pre-emergence herbicidal activity against Chenopodium album assessed as growth inhibition at 150 ai g/ha after 20 days by green house test; assay type: functional
Abutilon theophrasti [9] = test: Post-emergence herbicidal activity against Abutilon theophrasti (velvetleaf) assessed as growth inhibition at 75 ai g/ha after 20 days by green house test; assay type: functional
Amaranthus spinosus [10] = test: Post-emergence herbicidal activity against Amaranthus spinosus assessed as growth inhibition at 75 ai g/ha after 20 days by green house test; assay type: functional
Echinochloa crus-galli [11] = test: Pre-emergence herbicidal activity against Echinochloa crus-galli (barnyard grass) assessed as growth inhibition at 1500 ai g/ha after 20 days by green house test; assay type: functional
Digitaria sanguinalis [12] = test: Pre-emergence herbicidal activity against Digitaria sanguinalis (hairy crabgrass) assessed as growth inhibition at 150 ai g/ha after 20 days by green house test; assay type: functional
Setaria viridis [13] = test: Pre-emergence herbicidal activity against Setaria viridis (green foxtail) assessed as growth inhibition at 150 ai g/ha after 20 days by green house test; assay type: functional
Amaranthus retroflexus [14] = test: Post-emergence herbicidal activity against Amaranthus retroflexus assessed as growth inhibition at 1500 ai g/ha after 20 days by green house test; assay type: functional
Medicago sativa [15] = test: Pre-emergence herbicidal activity against Medicago sativa (alfalfa) assessed as growth inhibition at 1500 ai g/ha after 20 days by green house test; assay type: functional
Chenopodium album [16] = test: Pre-emergence herbicidal activity against Chenopodium album assessed as growth inhibition at 75 ai g/ha after 20 days by green house test; assay type: functional
Amaranthus spinosus [17] = test: Post-emergence herbicidal activity against Amaranthus spinosus assessed as growth inhibition at 450 ai g/ha after 20 days by green house test; assay type: functional
Setaria viridis [18] = test: Pre-emergence herbicidal activity against Setaria viridis (green foxtail) assessed as growth inhibition at 450 ai g/ha after 20 days by green house test; assay type: functional
Digitaria sanguinalis [19] = test: Post-emergence herbicidal activity against Digitaria sanguinalis (hairy crabgrass) assessed as growth inhibition at 450 ai g/ha after 20 days by green house test; assay type: functional
Cucumis sativus [20] = test: Herbicidal activity against Cucumis sativus Jin 4 (cucumber) assessed as inhibition of stem growth after 3 days; assay type: functional, organism-based; conditions: Jin 4, 72 h
[21] = biological target: Pyruvate dehydrogenase complex (Vigna radiata var. radiata); test: Inhibition of PDHc in Vigna radiata var. radiata VC2778A shoot mitochondria assessed as decrease in rate of NADH formation using sodium pyruvate as substrate preincubated for 25 min before substrate addition measured after 1 min by spectrophotometric assay; assay type: protein-complex assay
Amaranthus spinosus [22] = test: Pre-emergence herbicidal activity against Amaranthus spinosus assessed as growth inhibition at 150 ai g/ha after 20 days by green house test; assay type: functional
Medicago sativa [23] = test: Post-emergence herbicidal activity against Medicago sativa (alfalfa) assessed as growth inhibition at 1500 ai g/ha after 20 days by green house test; assay type: functional
Digitaria sanguinalis [24] = test: Post-emergence herbicidal activity against Digitaria sanguinalis (hairy crabgrass) assessed as growth inhibition at 150 ai g/ha after 20 days by green house test; assay type: functional
Chenopodium album [25] = test: Post-emergence herbicidal activity against Chenopodium album assessed as growth inhibition at 450 ai g/ha after 20 days by green house test; assay type: functional
Setaria viridis [26] = test: Post-emergence herbicidal activity against Setaria viridis (green foxtail) assessed as growth inhibition at 150 ai g/ha after 20 days by green house test; assay type: functional
Echinochloa crus-galli [27] = test: Post-emergence herbicidal activity against Echinochloa crus-galli (barnyard grass) assessed as growth inhibition at 1500 ai g/ha after 20 days by green house test; assay type: functional
Setaria viridis [28] = test: Post-emergence herbicidal activity against Setaria viridis (green foxtail) assessed as growth inhibition at 450 ai g/ha after 20 days by green house test; assay type: functional
Abutilon theophrasti [29] = test: Pre-emergence herbicidal activity against Abutilon theophrasti (velvetleaf) assessed as growth inhibition at 75 ai g/ha after 20 days by green house test; assay type: functional
Amaranthus retroflexus [30] = test: Post-emergence herbicidal activity against Amaranthus retroflexus assessed as growth inhibition at 450 ai g/ha after 20 days by green house test; assay type: functional
Digitaria sanguinalis [31] = test: Post-emergence herbicidal activity against Digitaria sanguinalis (hairy crabgrass) assessed as growth inhibition at 75 ai g/ha after 20 days by green house test; assay type: functional
Setaria viridis [32] = test: Pre-emergence herbicidal activity against Setaria viridis (green foxtail) assessed as growth inhibition at 75 ai g/ha after 20 days by green house test; assay type: functional
Chenopodium album [33] = test: Post-emergence herbicidal activity against Chenopodium album assessed as growth inhibition at 75 ai g/ha after 20 days by green house test; assay type: functional
Amaranthus spinosus [34] = test: Pre-emergence herbicidal activity against Amaranthus spinosus assessed as growth inhibition at 450 ai g/ha after 20 days by green house test; assay type: functional
Abutilon theophrasti [35] = test: Pre-emergence herbicidal activity against Abutilon theophrasti (velvetleaf) assessed as growth inhibition at 150 ai g/ha after 20 days by green house test; assay type: functional
[36] = Toxicity against Oryza sativa (rice) assessed as growth inhibition at 450 ai g/ha post-emergent application measured after 20 days by green house crop selectivity test; assay type: organism-based; conditions: in vivo, read-out: GI
Setaria viridis [37] = test: Post-emergence herbicidal activity against Setaria viridis (green foxtail) assessed as growth inhibition at 75 ai g/ha after 20 days by green house test; assay type: functional
Digitaria sanguinalis [38] = test: Post-emergence herbicidal activity against Digitaria sanguinalis (hairy crabgrass) assessed as growth inhibition at 1500 ai g/ha after 20 days by green house test; assay type: functional
Digitaria sanguinalis [39] = test: Pre-emergence herbicidal activity against Digitaria sanguinalis (hairy crabgrass) assessed as growth inhibition at 1500 ai g/ha after 20 days by green house test; assay type: functional
Cucumis sativus [40] = test: Herbicidal activity against Cucumis sativus Jin 4 (cucumber) assessed as inhibition of root growth after 3 days; assay type: functional, organism-based; conditions: Jin 4, 72 h
Pisum sativum = test: Post-emergence herbicidal activity against Pisum sativum Zhongwan-2 (pea) assessed as growth inhibition at 450 ai g/ha after 20 days by green house test; conditions: Lathyrus oleraceus
Abutilon theophrasti [41] = test: Post-emergence herbicidal activity against Abutilon theophrasti (velvetleaf) assessed as growth inhibition at 150 ai g/ha after 20 days by green house test; assay type: functional
Digitaria sanguinalis [42] = test: Pre-emergence herbicidal activity against Digitaria sanguinalis (hairy crabgrass) assessed as growth inhibition at 75 ai g/ha after 20 days by green house test; assay type: functional
Brassica juncea = test: Post-emergence herbicidal activity against Brassica juncea assessed as growth inhibition at 450 ai g/ha after 20 days by green house test; assay type: functional
Amaranthus retroflexus [43] = test: Pre-emergence herbicidal activity against Amaranthus retroflexus assessed as growth inhibition at 1500 ai g/ha after 20 days by green house test; assay type: functional
[44] = test system: Brassica rapa subsp. oleifera; test: Pre-emergence herbicidal activity against Brassica rapa subsp. oleifera Si Yue Man assessed as growth inhibition at 1500 ai g/ha after 20 days by green house test; assay type: functional
Echinochloa crus-galli [45] = test: Post-emergence herbicidal activity against Echinochloa crus-galli (barnyard grass) assessed as growth inhibition at 450 ai g/ha after 20 days by green house test; assay type: functional
Digitaria sanguinalis [46] = test: Pre-emergence herbicidal activity against Digitaria sanguinalis (hairy crabgrass) assessed as growth inhibition at 450 ai g/ha after 20 days by green house test; assay type: functional

## COP(=O)(OC)C(OC(=O)COc1ccc(Cl)cc1Cl)c1ccccc1 (stereo unspecified)
Chenopodium album [1]
  growth inhibition (GI): 92.5%
Amaranthus spinosus [2]
  growth inhibition (GI): 70%
Abutilon theophrasti [3]
  growth inhibition (GI): 100%
[4]
  growth inhibition (GI): 90%
Chenopodium album [5]
  growth inhibition (GI): 0%
Abutilon theophrasti [6]
  growth inhibition (GI): 0%
Amaranthus spinosus [7]
  growth inhibition (GI): 0%
Chenopodium album [8]
  growth inhibition (GI): 0%
Abutilon theophrasti [9]
  growth inhibition (GI): 82.5%
Amaranthus spinosus [10]
  growth inhibition (GI): 62.5%
Echinochloa crus-galli [11]
  growth inhibition (GI): 50%
Digitaria sanguinalis [12]
  growth inhibition (GI): 0%
Setaria viridis [13]
  growth inhibition (GI): 0%
Amaranthus retroflexus [14]
  growth inhibition (GI): 90%
Medicago sativa [15]
  growth inhibition (GI): 90%
Chenopodium album [16]
  growth inhibition (GI): 0%
Amaranthus spinosus [17]
  growth inhibition (GI): 87.5%
Setaria viridis [18]
  growth inhibition (GI): 30%
Digitaria sanguinalis [19]
  growth inhibition (GI): 0%
Cucumis sativus [20]
  IC50: 8.95 µM
[21]
  IC50: 95.4 µM
Amaranthus spinosus [22]
  growth inhibition (GI): 0%
Medicago sativa [23]
  growth inhibition (GI): 90%
Digitaria sanguinalis [24]
  growth inhibition (GI): 0%
Chenopodium album [25]
  growth inhibition (GI): 97.5%
Setaria viridis [26]
  growth inhibition (GI): 0%
Echinochloa crus-galli [27]
  growth inhibition (GI): <=50%
Setaria viridis [28]
  growth inhibition (GI): 0%
Abutilon theophrasti [29]
  growth inhibition (GI): 0%
Amaranthus retroflexus [30]
  growth inhibition (GI): 87.5%
Digitaria sanguinalis [31]
  growth inhibition (GI): 0%
Setaria viridis [32]
  growth inhibition (GI): 0%
Chenopodium album [33]
  growth inhibition (GI): 82.5%
Amaranthus spinosus [34]
  growth inhibition (GI): 0%
Abutilon theophrasti [35]
  growth inhibition (GI): 0%
[36]
  inhibition at 480 h: 10%
Setaria viridis [37]
  growth inhibition (GI): 0%
Digitaria sanguinalis [38]
  growth inhibition (GI): <=50%
Digitaria sanguinalis [39]
  growth inhibition (GI): 50%
Cucumis sativus [40]
  IC50: 0.0142 µM
Pisum sativum
  growth inhibition (GI): 96.5%
Abutilon theophrasti [41]
  growth inhibition (GI): 92.5%
Digitaria sanguinalis [42]
  growth inhibition (GI): 0%
Brassica juncea
  growth inhibition (GI): 97.5%
Amaranthus retroflexus [43]
  growth inhibition (GI): 90%
[44]
  growth inhibition (GI): 90%
Echinochloa crus-galli [45]
  growth inhibition (GI): 25%
Digitaria sanguinalis [46]
  growth inhibition (GI): 45%

## COP(=O)(COC(=O)COc1ccc(Cl)cc1Cl)OC
Chenopodium album [1]
  growth inhibition (GI): 99.5%
Amaranthus spinosus [2]
  growth inhibition (GI): 92.5%
Abutilon theophrasti [3]
  growth inhibition (GI): 100%
[4]
  growth inhibition (GI): 90%
Chenopodium album [5]
  growth inhibition (GI): 52.5%
Abutilon theophrasti [6]
  growth inhibition (GI): 47.5%
Amaranthus spinosus [7]
  growth inhibition (GI): 0%
Chenopodium album [8]
  growth inhibition (GI): 0%
Abutilon theophrasti [9]
  growth inhibition (GI): 82.5%
Amaranthus spinosus [10]
  growth inhibition (GI): 62.5%
Echinochloa crus-galli [11]
  growth inhibition (GI): <=50%
Digitaria sanguinalis [12]
  growth inhibition (GI): 0%
Setaria viridis [13]
  growth inhibition (GI): 0%
Amaranthus retroflexus [14]
  growth inhibition (GI): 90%
Medicago sativa [15]
  growth inhibition (GI): 75%
Chenopodium album [16]
  growth inhibition (GI): 0%
Amaranthus spinosus [17]
  growth inhibition (GI): 97.5%
Setaria viridis [18]
  growth inhibition (GI): 5%
Digitaria sanguinalis [19]
  growth inhibition (GI): 0%
Cucumis sativus [20]
  IC50: 7.79 µM
[21]
  IC50: 19.7 µM
Amaranthus spinosus [22]
  growth inhibition (GI): 0%
Medicago sativa [23]
  growth inhibition (GI): 90%
Digitaria sanguinalis [24]
  growth inhibition (GI): 0%
Chenopodium album [25]
  growth inhibition (GI): 100%
Setaria viridis [26]
  growth inhibition (GI): 0%
Echinochloa crus-galli [27]
  growth inhibition (GI): <=50%
Setaria viridis [28]
  growth inhibition (GI): 0%
Abutilon theophrasti [29]
  growth inhibition (GI): 0%
Amaranthus retroflexus [30]
  growth inhibition (GI): 97.5%
Digitaria sanguinalis [31]
  growth inhibition (GI): 0%
Setaria viridis [32]
  growth inhibition (GI): 0%
Chenopodium album [33]
  growth inhibition (GI): 82.5%
Amaranthus spinosus [34]
  growth inhibition (GI): 52.5%
Abutilon theophrasti [35]
  growth inhibition (GI): 0%
[36]
  inhibition at 480 h: 0%
Setaria viridis [37]
  growth inhibition (GI): 0%
Digitaria sanguinalis [38]
  growth inhibition (GI): <=50%
Digitaria sanguinalis [39]
  growth inhibition (GI): 90%
Cucumis sativus [40]
  IC50: 0.0577 µM
Pisum sativum
  growth inhibition (GI): 87.5%
Abutilon theophrasti [41]
  growth inhibition (GI): 99%
Digitaria sanguinalis [42]
  growth inhibition (GI): 0%
Brassica juncea
  growth inhibition (GI): 100%
Amaranthus retroflexus [43]
  growth inhibition (GI): 90%
[44]
  growth inhibition (GI): 90%
Echinochloa crus-galli [45]
  growth inhibition (GI): 0%
Digitaria sanguinalis [46]
  growth inhibition (GI): 0%
